Assay results: patent publication US6566081B1, “Methods of identifying a compound which modulates the non-transcriptional non-map-kinase induced effects of steroid hormones” (The Brigham and Women's Hospital, Inc., priority 1999, dated 2003)
“Also recorded” adds a separate entry of the source.

What was measured:
eNOS = eNOS activity assay (conversion of [3H]-arginine to [3H]-citrulline) in treated human endothelial cells; type: cell-based; settings: E2 10 nM, wortmannin 30 nM, genistein 50 μM, PD98059 5 μM; for effect on E2-stimulated eNOS activity, later phase (≥15 min) or 30 min: ICI 10 μM, actinomycin D 2 h pretreatment
Method: Fetal bovine serum was deprived of estrogen by charcoal-stripping. Once grown to confluence the cells were replated on 1.5% gelatin-coated flasks at 20000 cells/cm^2. […] Cell number was assessed by direct cell counting of adherent cells, after trypsin detachment, in a Neubauer hemocytometer (VWR Scientifics). The percentage of cells excluding Trypan Blue after staining with the compound was taken as a measure of cell viability.
Endothelial cells were grown to confluence on 55 cm^2 culture dishes, treated according to the indicated conditions, and harvested in ice-cold PBS containing 1 mM EDTA. The cell lysates were pelleted in a microfuge (2 minutes, 13000 rpm, 4° C.) and subsequently homogenized in a buffer containing 25 mM Tris-HCl, pH 7.4, 1 mM EDTA, 1 mM EGTA. eNOS activity was determined by measuring the conversion of [^3H]-arginine to [^3H]-citrulline. Rat cerebellum extracts, containing elevated amounts of neuronal NOS, were used as positive controls, while endothelial cell extracts incubated in the presence of the competitive eNOS inhibitor L-NAME (1 mM) served as negative controls.
Human and bovine aortic endothelial cells were harvested enzymatically with Type IA collagenase (1 mg/mL).

PI3-kinase = PI3-kinase assay on p85 immunoprecipitates of endothelial cell lysates; type: cell-based, human; settings: E2 10 nM 20 min; ICI 10 μM, wortmannin 30 nM
Method: PI3kinase activity in endothelial cell lysates was assayed using the borate thin layer chromatography method, as described.^34 Following a 6 h incubation in serum- and estrogen-deficient medium 199, endothelial cells were treated according to the indicated conditions, washed, and harvested in ice-cold lysis buffer (137 mM NaCl, 20 mM Tris-HCl, pH 7.4, 1 mM CaCl2, 1 mM Mg Cl2, 0.1 mM Na3VO4, 1% NP-40). After pelleting the cell debris, the supernatant was incubated for 1 hour at 4° C. with 5 μL of a rabbit antiserum directed against the p85 regulatory subunit of the PI3-kinase (Upstate Biotechnology, Lake Placid, N.Y.), and immunoprecipitated with the addition of 50 μL of a 1:1 slurry of protein A-agarose for 1 hour at 4° C. Following centrifugation, the immunoprecipitates were washed three times with lysis buffer, three times with 0.1 M Tris-HCl, pH 7.4, 5 mM LiCl, 0.1 mM Na3VO4, followed by two washes with 10 mM Tris-HCl, pH 7.4, 150 mM NaCl, 5 mM EDTA, 0.1 mM Na3VO4.
The immunoprecipitates were then mixed with 50 μL Tris-HCl, pH 7.4, 150 mM NaCl, 5 mM EDTA, 20 μg of phosphatidylinositol (Sigma, Saint Louis, Mo.), 10 μL 100 mM MgCl2 and 5 μL of a 0.88 mM ATP, 20 mM MgCl2 solution, containing 30 μCi of [γ-^32P]ATP (3000 Ci/mmol; NEN Life Science Products, Boston, Mass.). […] The phospholipids were extracted with 160 μL of chloroform/methanol (1:1, v/v). 50 μL of the organic phase, containing the labeled PI3-kinase products were separated by borate thin layer chromatography on glass-backed Silica Gel 60 plates (EM Separations, Gibbstown, N.J.) pretreated with a solution containing 25 mM trans-1,2-diaminocyclohexane-N,N,N′N′-tetraacetic acid (CDTA, Sigma, Saint Louis, Mo.), 66% (v/v) ethanol and 0.06 N NaOH, dried for 1 hour and then baked at 100° C. for 15 minutes. The chromatography was developed with a solution containing 37.5% (v/v) methanol, 30% (v/v) chloroform, 22.5% (v/v) pyridine (Sigma, Saint Louis, Mo.), 1.33% (v/v) formic acid, […] boric acid and 8.5 mM butylated hydroxytoluene (Sigma, Saint Louis, Mo.), briefly dried and exposed to autoradiography.

O=c1c(-c2ccc(O)cc2)coc2cc(O)cc(O)c12 [genistein]
effect on E2-stimulated eNOS activity, later phase (≥15 min) or 30 min (eNOS): only minimally affected; also recorded: not the later phase; also recorded: little or no inhibitory effect
effect on E2-stimulated eNOS activity, later phase (≥15 min) or 30 min (eNOS; listed as Genistein): do not block
effect on E2-stimulated eNOS activity, initial phase (first 5-10 min) (eNOS): able to block; also recorded: significantly blocked
effect on E2-stimulated eNOS activity, initial phase (first 5-10 min) (eNOS; listed as Genistein): blunt
effect on E2-induced PI3-kinase activation (PI3-kinase): only minimally affected
